Tests used:
[1] = assay type: in vitro ADME; conditions: topical or ocular, 5 microgram per mL
Protocol: Liver microsomal stability assays were conducted at 1 mg per mL liver microsome protein with an NADPH-generating system in 2% NaHCO3 (2.2 mM NADPH, 25.6 mM glucose 6-phosphate, 6 units per mL glucose 6-phosphate dehydrogenase and 3.3 mM MgCl2). Test compounds were prepared as solutions in 20% acetonitrile-water and added to the assay mixture (final assay concentration 5 microgram per mL) and incubated at 37° C. Final concentration of acetonitrile in the assay were <1%. Aliquots (50 μL) were taken out at times 0, 15, 30, 45, and 60 minutes, and diluted with ice cold acetonitrile (200 μL) to stop the reactions. Samples were centrifuged at 12000 RPM for 10 minutes to precipitate proteins. Supernatants were transferred to microcentrifuge tubes and stored for LC/MS/MS analysis of the degradation half-life of the test compounds.

[2] = cited from earlier work

SMILES	increase in the degradation half-life as compared to the non-isotopically enriched drug (udenafil) [1]	side effects of chromatopsia, such as sensitivity to light and blurred vision, in patients taking the drug [2] [%]
[2H]C([2H])(CC)c1nn(C([2H])([2H])[2H])c2c(=O)[nH]c(-c3cc(S(=O)(=O)NCCC4CCCN4C)ccc3OCCC)nc12 (stereo not drawn) [Example 4, d5-3-(1-Methyl-7-oxo-3-propyl-6,7-dihydro-1H-pyrazolo[4,3-d]pyrimidin-5-yl)-N-[2-(1-methyl-pyrrolidin-2-yl)-ethyl]-4-propoxy-benzenesulfonamide]	12-15%	–
[2H]C([2H])(CC)c1nn(C)c2c(=O)[nH]c(-c3cc(S(=O)(=O)NCCC4CCCN4C)ccc3OCCC)nc12 (stereo not drawn) [Example 5, d2-3-(1-Methyl-7-oxo-3-propyl-6,7-dihydro-1H-pyrazolo[4,3-d]pyrimidin-5-yl)-N-[2-(1-methyl-pyrrolidin-2-yl)-ethyl]-4-propoxy-benzenesulfonamide]	12-15%	–
CN1CC(=O)N2[C@H](c3ccc4c(c3)OCO4)c3[nH]c4ccccc4c3C[C@@H]2C1=O [tadalafil]	–	< 0.1

Reference: patent US20080194529A1 (AUSPEX PHARMACEUTICALS, INC., priority 2007, published 2008)
